The text below walks through data of patent US8501911B2, “Methods of reducing inflammation and mucus hypersecretion” (Biomarck Pharmaceuticals, Ltd, priority 1999, dated 2013).

Like-named read-outs stand apart in the source and are kept apart here. Residues, ends and D or L forms follow the SMILES beside them. *: point of attachment. Myristoyl = CCCCCCCCCCCCCC(=O)*

For test [1], the system named is U937 cells. Nature of the test: Inhibition of lysozyme release from U937 cells. Type of test: cell-based, human. The note with it: for % Inhibition Lysozyme: at 50 μM of test peptide, 100 nM PMA; for Effect on PMA stimulated lysozyme secretion: pre-incubation with 50 to 100 μM (RNS: any time point or concentration tested). As to the method:
U937 is a monocyte-like human cell line which was purchased from American Type Culture Collection (ATCC) Rockville, Md. (catalog #CRL-15932). The cells were maintained in medium consisting of RPMI 1640 with glutamine supplemented with 10% heat inactivated fetal bovine serum (Gibco, Carlsbad, Calif.), 50 IU/mL, penicillin, 50 μg/mL streptomycin at 37° C. in an atmosphere containing 5% CO2. U937 cells were washed and resuspended at 2.5×10^6 cells/mL in phenol red free RPMI-1640 medium (Cellgro, Mediatech Inc.). Aliquots of cells in 15 mL plastic tubes were preincubated with indicated concentrations of test peptides (dissolved in PBS, pH 7.0) for 10 min at 37° C. The cells were then stimulated with 100 nM PMA for 1 hour. The cells were then centrifuged at 400×g for 5 min at 4° C. Lysozyme released from U937 cells was measured using spectrophotometric assay as described previously by Ralph et al., 1976. (Ralph P, Moore M A S, and Nilsson K. Lysozyme synthesis by established human and murine histocytic lymphoma cell lines. J. Exp. Med. 143:1528-33, 1976). Briefly. 100 μL of supernatants were placed in a 96-well microtiter plate and mixed with 100 μL of a Micrococcus lysodeikticus (Sigma-Aldrich) suspension (0.3 mg/mL in 0.1 M sodium phosphate buffer, pH 7.0), incubated for […] at room temperature and decrease in absorbance at 450 nm was measured. Chicken egg white lysozyme (EMD Biosciences) was used as a standard.

The subject of test [2] is NHBE cells. Kind of test: UTP-induced mucin secretion from NHBE cells (ELISA). Type of test: cell-based, human. The note with it: for Mucin secretion, % of control levels: co-incubation with 0.1 mM UTP 45 min. As to the method: In Results-I-1D, NHBE cells were preincubated with the indicated inhibitor for 15 min and then stimulated with 100 μM UTP for 2 h. Secreted mucin in response to the treatment was collected and assayed by ELISA. Data are presented as mean±S.E. (n=6 at each point).
UTP is a well defined pathophysiologically relevant mucin secretagogue. Lethem ct al., Am. J. Respir. Cell Mol. Biol. 9, 315-322 (1993). […] To determine whether PKC and PKG were involved in regulation of mucin secretion in response to a pathophysiological stimulus, effects of PKC/PKG inhibitors on UTP-induced mucin secretion were investigated. NHBE cells were preincubated with various inhibitors for 15 min and then exposed to UTP (100 μM) plus the inhibitor for 2 h. The secreted mucin was measured by ELISA. […] Apparently, mucin secretion in NHBE cells may be regulated by a signaling mechanism involving both PKC and PKG.
Peptide Blocking Studies—NHBE cells were preincubated with either the MANS or the RNS peptide (1-100 μM) for 15 min, and then PMA (100 nM)+8-Br-cGMP (1 μM) or UTP (100 μM) was added, and cells were incubated for an additional 15 min or 2 h. respectively. Mucin secretion was measured by ELISA and experimental results are designated as Results-I-2B-1 and Results-I-2B-2, as follows.
PP2A is an essential component of the mucin secretory pathway. NHBE cells were preincubated with the indicated concentration of fostriecin, okadaic acid (500 nM), or medium alone for 15 min and then stimulated with PMA (100 nM)+8-Br-cGMP (1 μM) for 15 min or with UTP (100 μM) for 2 h. Secreted mucin was measured by ELISA. […] Thus, dephosphorylation of MARCKS by a PKG-activated PP2A appears to be an essential component of the signaling pathway leading to mucin granule exocytosis.
Measurement of Mucin Secretion by ELISA—Before collection of “base line” and “test” mucin samples, the accumulated mucus at the apical surface of the cells was removed by washing with phosphate-buffered saline, pH 7.2. To collect the base-line secretion, cells were incubated with medium alone, and secreted mucin in the apical medium was collected and reserved. Cells were rested for 24 h and then exposed to medium containing the selected stimulatory and/or inhibitory reagents (or appropriate controls), after which secreted mucin was collected and reserved as the test sample. Incubation times for the base line and the test were the same but varied depending on the test reagent utilized. Both base line and test secretions were analyzed by ELISA using an antibody capture method as known in the art. See, e.g., Harlow et al., Antibodies: A Laboratory Manual, pp. 570-573, Cold Spring Harbor Laboratory, Cold Spring Harbor, N.Y. (1988). The primary antibody for this assay was 17Q2 (Babco, Richmond, Calif.), a monoclonal antibody that reacts specifically with a carbohydrate epitope on human airway mucins. The ratio of test/base-line mucin, which is similar to a “secretory index”, was used to quantify mucin secretion, allowing each culture dish to serve as its own control and thus, minimizing deviation caused by variability among culture wells. Wright et al., Am. J. Physiol. 271, L854-L861 (1996). Levels of mucin secretion were reported as percentage of the medium control.
These experiments were carried out similarly to those described in Example 7. To test for stimulated secretion, the cells were exposed apically and basolaterally to uridine 5′-triphosphate (UTP) at a concentration of 0.1 mM in media. Cells were pre-incubated for 15 minutes with the MANS peptide and test cultures were then co-incubated with the MANS peptide and UTP for 45 minutes.
NHBE cells were pre-incubated with okadaic acid (500 nM) for 15 min at 37° C./5% CO2, then stimulated with PMA (100 nM)+8-Br-cGMP (1 μM) for 15 min, or with UTP (0.1 mM) for 2 hours. Secreted mucin in the apical medium was collected and assayed by ELISA. […]
In general terms: In an ELISA, binding on a coated surface is turned into a signal by an enzyme label.

Setting [3] is: peptide 1 μM, 15 min preincubation, then UTP 100 μM 2 h.
Setting [4] is: peptide 100 μM, 15 min preincubation, then UTP 100 μM 2 h.
Setting [5] is: test agent 10 μM, 15 min preincubation, then UTP 100 μM 2 h.

On to `CCCCCCCCCCCCCC(=O)NCC(=O)N[C@@H](C)C(=O)N[C@@H](CCC(N)=O)C(=O)N[C@@H](Cc1ccccc1)C(=O)N[C@@H](CO)C(=O)N[C@@H](CCCCN)C(=O)N[C@H](C(=O)N[C@@H](C)C(=O)N[C@@H](C)C(=O)N[C@@H](CCCCN)C(=O)NCC(=O)N[C@@H](CCC(=O)O)C(=O)O)[C@@H](C)O` [SEQ ID NO: 13, N-myristoyl-GAQFSKTAAKGE] (Myristoyl-GAQFSKTAAKGE-OH; C-terminus assumed), for which the “% Inhibition Lysozyme” value in test [1] worked out at 85.2%.

For `CCCCCCCCCCCCCC(=O)NCC(=O)N[C@@H](C)C(=O)N[C@@H](CCC(N)=O)C(=O)N[C@@H](Cc1ccccc1)C(=O)N[C@@H](CO)C(=O)N[C@@H](CCCCN)C(=O)N[C@H](C(=O)N[C@@H](C)C(=O)N[C@@H](C)C(=O)N[C@@H](CCCCN)C(=O)NCC(=O)N[C@@H](CCC(=O)O)C(=O)N[C@@H](C)C(=O)N[C@@H](C)C(=O)N[C@@H](C)C(=O)N[C@@H](CCC(=O)O)C(=O)N[C@@H](CCCNC(=N)N)C(=O)N1CCC[C@H]1C(=O)NCC(=O)N[C@@H](CCC(=O)O)C(=O)N[C@@H](C)C(=O)N[C@@H](C)C(=O)N[C@H](C(=O)N[C@@H](C)C(=O)O)C(C)C)[C@@H](C)O` [MANS peptide] (Myristoyl-GAQFSKTAAKGEAAAERPGEAAVA-OH; C-terminus assumed), the “Mucin secretion as % of the level observed with 0.1 mM UTP absent MANS peptide” value in test [2] (peptide 1 μM) is reported as “about 90%”; in test [2] (peptide 10 μM), “about 80%”; in test [2] (peptide 100 μM) it was “about 29%”. The “Mucin secretion, % of control levels” value came out at 146% in test [2] (peptide 1 μM, 15 min preincubation); 128% in test [2] (peptide 10 μM, 15 min preincubation); 46% in test [2] (peptide 100 μM, 15 min preincubation). Further, the “Mucin secretion as percent of control” value in test [2] (setting [3]) amounted to 143%; in test [2] (setting [4]) it was 46%; in test [2] (setting [5]) it was 125%. In addition, the “% Inhibition Lysozyme” value in test [1] is recorded as 40.8%. In addition, the “Effect on PMA stimulated lysozyme secretion” value in test [1] was “significantly attenuated”.

`CCCCCCCCCCCCCC(=O)NCC(=O)N[C@H](C(=O)N[C@@H](C)C(=O)N1CCC[C@H]1C(=O)N[C@@H](C)C(=O)N[C@@H](C)C(=O)N[C@@H](CCC(=O)O)C(=O)NCC(=O)N[C@@H](C)C(=O)NCC(=O)N[C@@H](C)C(=O)N[C@@H](CCC(=O)O)C(=O)N[C@H](C(=O)N[C@@H](CCCCN)C(=O)N[C@@H](CCCNC(=N)N)C(=O)N[C@@H](C)C(=O)N[C@@H](CO)C(=O)N[C@@H](C)C(=O)N[C@@H](CCC(=O)O)C(=O)N[C@@H](C)C(=O)N[C@@H](CCCCN)C(=O)N[C@@H](CCC(N)=O)C(=O)N[C@@H](C)C(=O)N[C@@H](Cc1ccccc1)C(=O)O)C(C)C)[C@@H](C)O` [RNS peptide, reference compound] (Myristoyl-GTAPAAEGAGAEVKRASAEAKQAF-OH; C-terminus assumed): the “Mucin secretion as percent of control” value in test [2] (setting [3]) is given as 154%; in test [2] (setting [4]), 158%; in test [2] (setting [5]), 155%. Moreover, the “% Inhibition Lysozyme” value in test [1] is reported as 0%. Further, the “Effect on PMA stimulated lysozyme secretion” value in test [1] was “did not affect”.

Turning to `C[C@@](O)(/C=C/[C@H]1CC=CC(=O)O1)[C@@H](C[C@@H](O)\C=C/C=C\C=C\CO)OP(=O)(O)O` [fostriecin], the activity at 0.01 µM in test [2] (Homo sapiens, NHBE, inhibitor 10 nM, 15 min preincubation, then UTP 100 μM 2 h, read-out: Mucin secretion as percent of control) came to 152%. In addition, in test [2] (Homo sapiens, NHBE, inhibitor 100 nM, 15 min preincubation, then UTP 100 μM 2 h, read-out: Mucin secretion as percent of control), the activity at 0.1 µM amounted to 134%. In test [2] (Homo sapiens, NHBE, inhibitor 500 nM, 15 min preincubation, then UTP 100 μM 2 h, read-out: Mucin secretion as percent of control), the activity at 0.5 µM is 124%.

On to TNF-α, for which the “Mucin secretion level, % of control” value in test [2] (TNF-α 10 ng/ml 4 h, then UTP 0.1 mM 2 h) is 191%.

As to `CCCCCCCCCCCCCC(=O)NCC(=O)N[C@@H](C)C(=O)N[C@@H](CCC(N)=O)C(=O)N[C@@H](Cc1ccccc1)C(=O)N[C@@H](CO)C(=O)N[C@@H](CCCCN)C(=O)N[C@H](C(=O)N[C@@H](C)C(=O)N[C@@H](C)C(=O)N[C@@H](CCCCN)C(=O)O)[C@@H](C)O` [SEQ ID NO: 15, N-myristoyl-GAQFSKTAAK] (Myristoyl-GAQFSKTAAK-OH; C-terminus assumed), the “% Inhibition Lysozyme” value in test [1] is on record as 56.6%.

Turning to `C=C1[C@@H](O)[C@@H]2O[C@]3(CC[C@H](/C=C/[C@@H](C)[C@@H]4CC(C)=C[C@@]5(O[C@H](C[C@@](C)(O)C(=O)O)CC[C@H]5O)O4)O3)CC[C@H]2O[C@@H]1[C@@H](O)C[C@H](C)[C@H]1O[C@@]2(CCCCO2)CC[C@H]1C` [okadaic acid], the activity at 0.5 µM in test [2] (Homo sapiens, NHBE, read-out: Mucin secretion as percent of control, inhibitor 500 nM, 15 min preincubation, then UTP 100 μM 2 h) turned out to be 112%. Besides, the “Mucin secretion as percent of control” value in test [2] (inhibitor 500 nM, 15 min preincubation, then UTP 100 μM 2 h) came out at 110%. Moreover, in test [2] (inhibitor 500 nM, UTP 0.1 mM 2 h), the “Reduction in mucin secretion level from UTP-stimulated level” value is reported as 31%.
